Laboratory results published in ChEMBL document CHEMBL1201862, “PubChem BioAssay data set” (2004).
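Results reflect a 48-hour exposure of cells in 96-well plates to compound at five concentrations. Here, GI50 denotes the concentration required for 50% inhibition of growth.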 The source made the active and inactive calls. Rule as the data show it: active = GI50 up to about 1.1 µM and inactive = higher. Numbered stars: 1 amine (or outer) side, 2 acyl side, 3 side chain; on linkers, the order of the positions; unused ones are H or OH. Bridge positions count the residues as written; N and C are the ends. Square brackets hold non-standard residues; d marks the D form. Peptide text beside a SMILES is read from it. I, II: the chains in the order shown. Actinocin(9to1) = Cc1c2oc3c(C)ccc(C(=O)[*:1])c3nc-2c(C(=O)[*:2])c(N)c1=O; NMeH = CN[CH](Cc1c[nH]cn1)C(=O)O; Sar = CNCC(=O)O

Tests used:
Experiment in all cases: DTP human tumour cell line panel, 48 h
T47D = system: T47D
MDA-MB-435 = system: MDA-MB-435
HCC 2998 = system: HCC 2998
UACC-257 = system: UACC-257
IGROV-1 = system: IGROV-1
SNB-19 = system: SNB-19
HOP-92 = system: HOP-92
SF-268 = system: SF-268
U-251 = system: U-251
SF-295 = system: SF-295
K562 = system: K562
MCF7 = system: MCF7
COLO 205 = system: COLO 205
HCT-15 = system: HCT-15
MOLT-4 = system: MOLT-4
SK-MEL-28 = system: SK-MEL-28
M14 = system: M14
DU-145 = system: DU-145
SK-MEL-2 = system: SK-MEL-2
SNB-75 = system: SNB-75

SMILES | GI50 (T47D) | GI50 (MDA-MB-435) | GI50 (HCC 2998) | GI50 (UACC-257) | GI50 (IGROV-1) | GI50 (SNB-19) | GI50 (HOP-92) | GI50 (SF-268) | GI50 (U-251) | GI50 (SF-295) | GI50 (K562) | GI50 (MCF7) | GI50 (COLO 205) | GI50 (HCT-15) [µM] | GI50 (MOLT-4) | GI50 (SK-MEL-28) | GI50 (M14) | GI50 (DU-145) | GI50 (SK-MEL-2) | GI50 (SNB-75)
CC(=O)Nc1cc2c(cc1O)CC[C@@H]1[C@@H]2CC[C@]2(C)[C@@H](O)CC[C@@H]12 | 30.3 µM (inactive) | 19.7 µM (inactive) | 37.2 µM (inactive) | 43.4 µM (inactive) | 82.4 µM (inactive) | > 100 µM (inactive) | 41 µM (inactive) | 13.1 µM (inactive) | 42 µM (inactive) | 31.3 µM (inactive) | 23.5 µM (inactive) | 28.6 µM (inactive) | 30 µM (inactive) | 15.3 | 34.7 µM (inactive) | 63.4 µM (inactive) | 39.4 µM (inactive) | – | – | –
CC(CO)(Nc1ccc([N+](=O)[O-])cc1[N+](=O)[O-])C(=O)O (stereo unspecified) | – | 21.6 µM (inactive) | 22.4 µM (inactive) | 24.9 µM (inactive) | 20 µM (inactive) | 43 µM (inactive) | – | 19.3 µM (inactive) | 22.9 µM (inactive) | 68.9 µM (inactive) | 19.1 µM (inactive) | 17.5 µM (inactive) | 16.9 µM (inactive) | 17.6 | – | 22.1 µM (inactive) | 80.2 µM (inactive) | 22.8 µM (inactive) | 20.7 µM (inactive) | –
Cc1cc2c3c(c1)S(=O)(=O)c1cc(Cl)ccc1N3CCC2 | – | > 100 µM (inactive) | > 100 µM (inactive) | 60.8 µM (inactive) | 84.3 µM (inactive) | > 100 µM (inactive) | > 100 µM (inactive) | > 100 µM (inactive) | – | 56 µM (inactive) | 96.8 µM (inactive) | > 100 µM (inactive) | > 100 µM (inactive) | > 100 | 57.7 µM (inactive) | > 100 µM (inactive) | > 100 µM (inactive) | > 100 µM (inactive) | > 100 µM (inactive) | 58.5 µM (inactive)
COC(=O)C1CC(C(=O)OC)c2nc3cc(C)c(C)cc3nc21 (stereo unspecified) | – | – | > 100 µM (inactive) | > 100 µM (inactive) | > 100 µM (inactive) | > 100 µM (inactive) | > 100 µM (inactive) | > 100 µM (inactive) | > 100 µM (inactive) | > 100 µM (inactive) | > 100 µM (inactive) | – | > 100 µM (inactive) | > 100 | > 100 µM (inactive) | > 100 µM (inactive) | > 100 µM (inactive) | – | > 100 µM (inactive) | 36.3 µM (inactive)
Cc1cccc(N(C(=O)Nc2ccc(Cl)c(Cl)c2)C2=NCC(C)S2)c1 (stereo unspecified) | 9.84 µM (inactive) | – | 36.8 µM (inactive) | 42.9 µM (inactive) | 69.7 µM (inactive) | > 100 µM (inactive) | 38.6 µM (inactive) | 23.2 µM (inactive) | 62.5 µM (inactive) | 78.3 µM (inactive) | 24.8 µM (inactive) | 17 µM (inactive) | 44.7 µM (inactive) | 41.6 | 16.2 µM (inactive) | 38.6 µM (inactive) | 0.55 µM (active) | > 100 µM (inactive) | 23.8 µM (inactive) | 54.3 µM (inactive)
O=c1[nH]c2ccccc2c2oc(-c3ccccc3)nc12 | 51.2 µM (inactive) | 18.4 µM (inactive) | > 100 µM (inactive) | > 100 µM (inactive) | > 100 µM (inactive) | 26.1 µM (inactive) | 28.5 µM (inactive) | 21.3 µM (inactive) | 24.7 µM (inactive) | 23.9 µM (inactive) | 36.1 µM (inactive) | 44.8 µM (inactive) | 18.6 µM (inactive) | > 100 | 26.6 µM (inactive) | – | > 100 µM (inactive) | – | 24.2 µM (inactive) | 20.2 µM (inactive)
Cc1csc2c(=O)n(C3OC(CO)C(O)C3O)c(=O)[nH]c12 (stereo unspecified) | – | > 100 µM (inactive) | – | > 100 µM (inactive) | > 100 µM (inactive) | > 100 µM (inactive) | > 100 µM (inactive) | > 100 µM (inactive) | > 100 µM (inactive) | > 100 µM (inactive) | > 100 µM (inactive) | > 100 µM (inactive) | > 100 µM (inactive) | – | > 100 µM (inactive) | > 100 µM (inactive) | > 100 µM (inactive) | > 100 µM (inactive) | – | > 100 µM (inactive)
O=C(NC(Cc1ccccc1)(Cc1ccc(O)cn1)C(=O)O)c1ccccc1 (stereo unspecified) | – | > 100 µM (inactive) | 99.1 µM (inactive) | > 100 µM (inactive) | > 100 µM (inactive) | > 100 µM (inactive) | 33.8 µM (inactive) | > 100 µM (inactive) | > 100 µM (inactive) | 92 µM (inactive) | > 100 µM (inactive) | – | 84.7 µM (inactive) | > 100 | 46.8 µM (inactive) | > 100 µM (inactive) | > 100 µM (inactive) | > 100 µM (inactive) | > 100 µM (inactive) | 69.2 µM (inactive)
COP(=O)(OC)C(N)CCSC (stereo unspecified) | – | > 100 µM (inactive) | – | > 100 µM (inactive) | > 100 µM (inactive) | > 100 µM (inactive) | > 100 µM (inactive) | > 100 µM (inactive) | > 100 µM (inactive) | > 100 µM (inactive) | > 100 µM (inactive) | > 100 µM (inactive) | > 100 µM (inactive) | > 100 | > 100 µM (inactive) | > 100 µM (inactive) | > 100 µM (inactive) | – | > 100 µM (inactive) | > 100 µM (inactive)
CS/C(=N\S(=O)(=O)c1ccc(Cl)cc1)NCCN/C(=N/S(=O)(=O)c1ccc(Cl)cc1)SC | – | > 100 µM (inactive) | > 100 µM (inactive) | > 100 µM (inactive) | > 100 µM (inactive) | 35.7 µM (inactive) | 14.2 µM (inactive) | 21.3 µM (inactive) | 18 µM (inactive) | 61.2 µM (inactive) | > 100 µM (inactive) | > 100 µM (inactive) | > 100 µM (inactive) | > 100 | > 100 µM (inactive) | > 100 µM (inactive) | > 100 µM (inactive) | > 100 µM (inactive) | 30.1 µM (inactive) | 24.4 µM (inactive)
O=C1OC(CS(=O)(=O)c2ccccc2)CC1O (stereo unspecified) | – | > 100 µM (inactive) | > 100 µM (inactive) | > 100 µM (inactive) | > 100 µM (inactive) | > 100 µM (inactive) | – | > 100 µM (inactive) | > 100 µM (inactive) | > 100 µM (inactive) | > 100 µM (inactive) | > 100 µM (inactive) | > 100 µM (inactive) | > 100 | > 100 µM (inactive) | > 100 µM (inactive) | > 100 µM (inactive) | > 100 µM (inactive) | > 100 µM (inactive) | –
CCOC1CCC2C(CCC(/C=C/c3ccc(O)c4ncccc34)N2C)C1 (stereo unspecified) | 9.86 µM (inactive) | – | 24.2 µM (inactive) | – | 11.4 µM (inactive) | 16 µM (inactive) | 11.7 µM (inactive) | 6.24 µM (inactive) | 15.4 µM (inactive) | 24 µM (inactive) | 4.6 µM (inactive) | 4.23 µM (inactive) | 3.56 µM (inactive) | 40.8 | 3.72 µM (inactive) | 29.6 µM (inactive) | 15.4 µM (inactive) | 10.3 µM (inactive) | – | –
CC(=O)O[C@H]1C(=O)[C@@]2(C)[C@H]([C@H](OC(=O)c3cccc([N+](=O)[O-])c3)[C@]3(O)C[C@H](OC(=O)[C@H](O)[C@@H](NC(=O)c4ccccc4)c4ccccc4)C(C)=C1C3(C)C)[C@]1(OC(C)=O)CO[C@@H]1C[C@@H]2O | – | 0.00336 µM (active) | 0.00762 µM (active) | < 0.0025 µM (active) | 0.00783 µM (active) | 0.00652 µM (active) | 0.022 µM (active) | 0.021 µM (active) | 0.00681 µM (active) | 0.0155 µM (active) | 0.00482 µM (active) | 0.00423 µM (active) | 0.00474 µM (active) | 0.438 | 0.00509 µM (active) | 0.0157 µM (active) | 0.00619 µM (active) | 0.0177 µM (active) | 0.0126 µM (active) | 0.00759 µM (active)
Nc1ccc(O)c2c1C(=O)c1c(N)ccc(O)c1C2=O | – | – | > 100 µM (inactive) | > 100 µM (inactive) | > 100 µM (inactive) | > 100 µM (inactive) | > 100 µM (inactive) | > 100 µM (inactive) | > 100 µM (inactive) | > 100 µM (inactive) | > 100 µM (inactive) | – | > 100 µM (inactive) | > 100 | > 100 µM (inactive) | > 100 µM (inactive) | > 100 µM (inactive) | – | > 100 µM (inactive) | > 100 µM (inactive)
Cc1c2oc3c(C)ccc(C(=O)NC4C(=O)NC(C(C)C)C(=O)N5CCCC5C(=O)N(C)CC(=O)N(C)C(Cc5cnc[nH]5)C(=O)OC4C)c3nc-2c(C(=O)NC2C(=O)NC(C(C)C)C(=O)N3CCCC3C(=O)N(C)CC(=O)N(C)C(Cc3cnc[nH]3)C(=O)OC2C)c(N)c1=O (stereo unspecified) (I: TVP[Sar][NMeH] / II: TVP[Sar][NMeH]; ester I:1-I:C, II:1-II:C; linker I:N-II:N via Actinocin(9to1); configuration not given here) | 47.5 µM (inactive) | 63.4 µM (inactive) | 37.8 µM (inactive) | > 100 µM (inactive) | 47.3 µM (inactive) | 45 µM (inactive) | 40.6 µM (inactive) | 67.6 µM (inactive) | 57.1 µM (inactive) | 45.6 µM (inactive) | 39.4 µM (inactive) | 30.4 µM (inactive) | 31.3 µM (inactive) | > 100 | 37.3 µM (inactive) | 39.4 µM (inactive) | 68.5 µM (inactive) | – | 26.3 µM (inactive) | 66.8 µM (inactive)
